Measurements as given in PubChem BioAssay (NCI).
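Following 48 hours of exposure in 96-well plates, responses at five concentrations were used to interpolate endpoints linearly. GI50 = concentration required for 50% inhibition of growth. TGI: total growth inhibition.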

What was measured:
Experiment in all cases: DTP human tumour cell line panel, 48 h
A549 NSCLC = test system: A549 NSCLC
ACHN renal = test system: ACHN renal
EKVX NSCLC = test system: EKVX NSCLC
KM12 colon = test system: KM12 colon
RPMI-8226 leukemia = test system: RPMI-8226 leukemia
SN12C renal = test system: SN12C renal
SNB-19 CNS = test system: SNB-19 CNS
TK-10 renal = test system: TK-10 renal
SF-539 CNS = test system: SF-539 CNS
SNB-75 CNS = test system: SNB-75 CNS

Row | SMILES | TGI (A549 NSCLC) [µM] | TGI (ACHN renal) [µM] | TGI (EKVX NSCLC) [µM] | TGI (KM12 colon) [µM] | TGI (RPMI-8226 leukemia) [µM] | TGI (SN12C renal) [µM] | TGI (SNB-19 CNS) [µM] | TGI (TK-10 renal) [µM] | TGI (SF-539 CNS) [µM] | TGI (SNB-75 CNS) [µM] | GI50 (A549 NSCLC) [µM] | GI50 (ACHN renal) [µM] | GI50 (EKVX NSCLC) [µM] | GI50 (KM12 colon) [µM] | GI50 (RPMI-8226 leukemia) [µM] | GI50 (SF-539 CNS) [µM] | GI50 (SN12C renal) [µM] | GI50 (SNB-19 CNS) [µM] | GI50 (SNB-75 CNS) [µM] | GI50 (TK-10 renal) [µM]
1 | O=C(O)CC(C(=O)O)C1c2ccccc2-c2ccccc21 (centres undefined) | > 100 | > 100 | > 100 | > 100 | > 100 | > 100 | > 100 | > 100 |  |  |  |  |  |  |  |  |  |  |  | 
2 | O=S(=O)(O)c1cc(N=Nc2cc(S(=O)(=O)O)c3ccccc3c2O)ccc1/C=C/c1ccc(N=Nc2cc(S(=O)(=O)O)c3ccccc3c2O)cc1S(=O)(=O)O | > 1000 | > 755 | > 632 | > 365 | > 311 | > 1000 | > 1000 | 220 | > 667 | > 736 |  |  |  |  |  |  |  |  |  | 
3 | Nc1cc(S(=O)(=O)O)cc2cc(S(=O)(=O)O)c(N=Nc3ccc(-c4ccc(N=Nc5c(S(=O)(=O)O)cc6cc(S(=O)(=O)O)cc(N)c6c5O)cc4)cc3)c(O)c12 | > 100 |  | > 100 | > 100 | > 100 | > 100 | > 100 |  | > 100 | > 100 |  |  |  |  |  |  |  |  |  | 
4 | C=C1C(=O)CCC1C(=O)O (centres undefined) | > 100 | > 100 | > 100 | > 100 | > 100 | > 100 | > 100 | > 100 | > 100 | > 100 |  |  |  |  |  |  |  |  |  | 
5 | C=C(C)C(=O)OC1C(C(C)CCCO)=C(CO)CC2OC(=O)C(=C)C21 (centres undefined) | 63.7 | 79.8 | 87.2 | 27.7 | 91.9 | 32.8 | > 100 | > 100 | 58.9 | 40.5 |  |  |  |  |  |  |  |  |  | 
6 | COc1ccc(-c2nn(-c3ccc(NC(=O)Nc4ccc(Cl)c(Cl)c4)cc3)cc2-c2ccncc2)cc1Cl | > 100 | > 100 | > 100 | > 100 | 3.18 | > 100 | > 100 | > 100 | > 100 | > 100 | 1.56 | 2.27 | 2.18 | 2.13 | 0.54 | 2.82 | 2.6 | 3.36 | 1.17 | 2.04
7 | C=C(C)C1CC2=C(O1)C(=O)c1ccccc1C2=O (centres undefined) | 42.3 |  | 60.3 | 33.4 | 44.5 | 43.5 | 96.6 | 46.3 | 33.7 | 31.8 |  |  |  |  |  |  |  |  |  | 
8 | C=C1C(=O)OC2/C=C(\C)C(=O)CC3OC(C)(C)OC3(C)CC(OC(=O)/C(C)=C/C)C12 (centres undefined) | > 100 | 16.6 | 34.2 | 38 | > 100 | > 59.2 | > 100 | 27.9 | 49.4 | > 72.9 |  |  |  |  |  |  |  |  |  | 
9 | OC(Cc1ccccc1)(Cc1ccccc1)c1ccccc1 | 46.3 | 33.5 | 38 | 33.3 | > 100 | 32 | 67.9 | 42.6 |  |  |  |  |  |  |  |  |  |  |  | 
10 | O=C(/C=c1\oc(=O)/c(=C/C(=O)c2ccc(Cl)cc2)oc1=O)c1ccc(Cl)cc1 | > 100 | > 100 | > 100 | > 100 | > 100 | > 100 | > 100 | > 100 | > 100 |  |  |  |  |  |  |  |  |  |  | 
11 | CC(C)(C)C1(c2ccc(C3(c4ccccc4)Oc4ccccc4S3)[nH]2)Oc2ccccc2S1 (centres undefined) | > 100 | > 100 | > 100 |  | > 100 | > 100 | > 100 | > 100 | > 100 |  |  |  |  |  |  |  |  |  |  | 
12 | COc1cc(C(C)(C)C)cc(OC)c1C(O)(c1c(OC)cc(C(C)(C)C)cc1OC)c1c(OC)cc(C(C)(C)C)cc1OC | 1.23 | 0.987 |  | 1.05 | 0.725 |  |  |  | 1.22 |  | 0.324 | 0.284 |  | 0.349 | 0.233 | 0.342 |  |  |  | 
13 | CCN=C=NCCCN(C)C | > 100 | > 100 | > 100 | > 100 | > 100 | > 100 | > 100 | > 100 | > 100 | > 100 |  |  |  |  |  |  |  |  |  | 
14 | O=Nc1ccc(O)c2ncccc12 | 30.4 | 14.5 | 5.8 | 20.4 | 99.8 | 25.2 | 74.7 | 28.2 | 4.96 | 8.48 |  |  |  |  |  |  |  |  |  | 
15 | C[N+]1(C)CCOC(O)(c2ccccc2)C1 (centres undefined) | > 100 | > 100 | > 100 | > 100 | > 100 | > 100 | > 100 | > 100 | > 100 | > 100 |  |  |  |  |  |  |  |  |  | 
16 | Cc1ccc(P(c2ccc(C)cc2)c2ccc(C)cc2)cc1 | > 100 | > 100 | > 100 | 60.9 | 34.6 | 34.3 | > 100 | > 100 | 37.7 | 49.5 |  |  |  |  |  |  |  |  |  | 
17 | O=[N+]([O-])c1ccc(/C=N\Nc2ccc([N+](=O)[O-])cn2)cc1 | > 100 | > 100 | > 100 | > 100 | > 100 | > 100 | > 100 | > 100 | 82.8 | > 100 |  |  |  |  |  |  |  |  |  | 
18 | C=C1CC23CCC4C(C)(C(=O)O)CCCC4(C)C2CCC1C3 (centres undefined) | > 100 | > 100 | 75.5 | > 100 | 91.6 | > 100 | > 100 | > 100 | > 100 | > 100 |  |  |  |  |  |  |  |  |  | 
19 | COc1ccc2[nH]c3c([N+](=O)[O-])ccc(Cl)c3c(=O)c2c1 | > 100 | 29.3 | > 100 | > 73.4 | 45.4 | 55.1 | > 80.9 | > 56.6 | 34.2 |  |  |  |  |  |  |  |  |  |  | 
20 | COC1/C=C\OC2(C)Oc3c(C)c(O)c4c(O)c(c(/C=N\OCCCc5ccccc5)c(O)c4c3C2=O)NC(=O)/C(C)=C\C=C/C(C)C(O)C(C)C(O)C(C)C(OC(C)=O)C1C (centres undefined) | 12.9 | 7.39 | 17.7 | 14 |  | 7.66 | 19.7 | 8.47 | 7.3 | 8.86 |  |  |  |  |  |  |  |  |  | 
21 | C=C(C)[C@@H]1CC[C@]2(C(=O)Nc3ccccn3)CC[C@]3(C)[C@H](CC[C@@H]4[C@@]5(C)CCCNC(C)(C)[C@@H]5CC[C@]43C)[C@@H]12 |  | 4.64 | 2.53 | 3.36 |  | 2.92 | 4.26 | 5.45 |  | 5.89 |  | 2.08 | 1.06 | 1.82 |  |  | 1.57 | 1.98 | 1.72 | 2.26
22 | CCN(CC)C(=S)SC(=S)N(CC)CC | > 100 | > 100 | > 100 | 64.2 | 57.4 | > 100 | > 100 | > 100 | > 100 | 99.2 |  |  |  |  |  |  |  |  |  | 
23 | CC(=O)c1cccc(Nc2c3ccccc3nc3occc23)c1 | > 100 | > 100 | > 100 | 52.6 | 15.9 | > 100 | > 100 | 94.1 | 7.63 |  |  |  |  |  |  |  |  |  |  | 
24 | C=C(CN(C)C)C(=O)c1ccc(C)cc1C | 63.1 | 19.3 | 40 | 31 | > 100 | 33.4 | 57.7 | 22.2 | 30 | 34.9 |  |  |  |  |  |  |  |  |  | 
25 | CC(C)=CCc1c(O)ccc2c1OC1c3ccc(O)c(CC=C(C)C)c3OCC21 (centres undefined) | 26.5 |  | 26.8 | 33.7 | 17.1 | 30.3 | 27.6 |  | 23.9 | 33.9 |  |  |  |  |  |  |  |  |  | 
26 | C[C@H](C(=O)N[C@@H](Cc1ccc(-c2ccccc2)cc1)C(=O)NC1CC(C)(C)N(C)C(C)(C)C1)c1ccc(-c2ccccc2)c(F)c1 |  | 3.05 |  |  |  | 2.77 |  | 3.32 | 3.03 | 3.74 |  | 1.62 |  |  |  | 1.56 | 1.31 |  | 1.35 | 1.75
